Results as given in patent US8088924B2, “Pyridone derivatives having a binding activity to the cannabinoid type 2 receptor” (Shionogi & Co., Ltd., priority 2000, dated 2012).

Legend:
human CB1 receptor = target: T1, human CB1 receptor (Homo sapiens, UniProt P21554); assay: Human CB1 receptor binding assay ([3H]CP55940, membranes of CB1R-expressing CHO cells); conditions: [3H]CP55940 0.5 nM
T1 construct: expressed in transfected cells
Procedure: Receptor binding assay was performed by incubating the membranes with each test compound and [^3H]CP55940 (at a final concentration of 0.5 nM: NEN Life Science Products) in the assay buffer (50 mM Tris-HCl, 1 mM EDTA, 3 mM MgCl2, pH 7.4) containing 0.5% bovine serum albumin (BSA) for 2 h at 25° C. The incubation mixture was filtered through 1% polyethylenimine-treated GF/C glass filter and washed with 50 mM Tris-HCl (pH 7.4) containing 0.1% BSA. The radioactivity was then counted with a liquid scintillation counter.
(§1) For the receptor binding assay of human CB1 receptor (CB1R), the stable CB1R-expressing CHO cells were prepared as described above, and the binding assay was performed using their membrane fractions.

human CB2 receptor = target: T2, human CB2 receptor (Homo sapiens, UniProt P34972); assay: Human CB2 receptor binding inhibition ([3H]CP55940, membranes of CB2R-expressing CHO cells)
T2 construct: The coding region of human CB2 receptor (CB2R) cDNA (Munro etc, Nature, 1993, 365, 61-65) was inserted into the mammalian expression vector; expressed in transfected cells
T2 sequence (P34972 whole entry): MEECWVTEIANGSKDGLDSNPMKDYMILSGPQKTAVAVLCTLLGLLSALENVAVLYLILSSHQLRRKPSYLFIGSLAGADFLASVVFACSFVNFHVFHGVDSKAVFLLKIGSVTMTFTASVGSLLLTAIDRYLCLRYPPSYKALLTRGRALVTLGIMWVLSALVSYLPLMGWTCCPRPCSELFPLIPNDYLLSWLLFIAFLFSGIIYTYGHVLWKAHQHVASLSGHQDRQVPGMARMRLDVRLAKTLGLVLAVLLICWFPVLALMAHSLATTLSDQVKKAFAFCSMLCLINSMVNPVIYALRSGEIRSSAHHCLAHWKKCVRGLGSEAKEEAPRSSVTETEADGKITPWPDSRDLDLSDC
Procedure: The crude membrane fractions were prepared from the CB2R-expressing CHO cells. Receptor binding assay was performed by incubating the membranes with each test compound and [^3H]CP55940 (at a final concentration of 0.5 nM: NEN Life Science Products) in the assay buffer (50 mM Tris-HCl, 1 mM EDTA, 3 mM MgCl2, pH 7.4) containing 0.5% bovine serum albumin (BSA) for 2 h at 25° C. The incubation mixture was filtered through 1% polyethylenimine-treated GF/C glass filter and washed with 50 mM Tris-HCl (pH 7.4) containing 0.1% BSA. The radioactivity was then counted with a liquid scintillation counter.
as §1

T1 sequence (P21554 whole entry): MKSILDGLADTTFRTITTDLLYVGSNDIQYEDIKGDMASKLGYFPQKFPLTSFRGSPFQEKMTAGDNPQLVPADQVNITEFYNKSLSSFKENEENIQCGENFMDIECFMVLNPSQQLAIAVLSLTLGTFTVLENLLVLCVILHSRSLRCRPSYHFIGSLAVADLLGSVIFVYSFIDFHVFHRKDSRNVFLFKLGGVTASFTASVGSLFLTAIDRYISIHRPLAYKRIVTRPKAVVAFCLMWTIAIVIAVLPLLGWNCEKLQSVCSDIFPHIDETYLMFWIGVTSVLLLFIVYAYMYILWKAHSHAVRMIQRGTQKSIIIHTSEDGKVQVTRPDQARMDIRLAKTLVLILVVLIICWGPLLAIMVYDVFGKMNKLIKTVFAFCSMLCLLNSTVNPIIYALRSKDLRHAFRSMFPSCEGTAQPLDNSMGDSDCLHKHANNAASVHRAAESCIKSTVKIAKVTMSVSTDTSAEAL

SMILES | Ki (human CB1 receptor) [nM] | melting point [°C] | Ki (human CB2 receptor) [nM]
CCCCn1c(C)c(C)cc(NC(=O)c2ccccc2Cl)c1=O [Example 5-005] | 391 |  | 
CCCCn1c(C)c(C)cc(NC(=O)c2ccc(F)cc2)c1=O |  | 129 to 130 | 
CCn1c(C)c(C)cc(C(=O)NCc2ccccc2)c1=O |  | 117 | 
CCCCn1c(C)c(C)cc(NC(=O)c2ccccc2C)c1=O [Example 5-006] | 390 |  | 
Cc1ccc(Oc2nc3ccccc3o2)c(=S)n1C |  | 245 to 247 | 
CCCCn1c2c(cc(C(=O)NCCc3ccc(N)cc3)c1=O)CCCC2 [Example 4-003] | 680 |  | 44
